{
  "source": "patent US6046331A",
  "about": "“Imidazolones and their use in treating benign prostatic hyperplasia and other disorders” (Synaptic Pharmaceutical Corporation, priority 1998, dated 2000)",
  "origin": "cited, not measured here",
  "data": [
    {"conditions": "cited from earlier work", "values": [
      {"compound": "CC(COc1ccccc1)N(CCCl)Cc1ccccc1", "note": "(stereo not shown) [phenoxybenzamine]", "relieving the symptoms of / treating BPH": "useful in relieving the symptoms of BPH"},
      {"compound": "COc1cc2nc(N3CCN(C(=O)c4ccco4)CC3)nc(N)c2cc1OC", "note": "[prazosin]", "relieving the symptoms of / treating BPH": "useful for treating BPH"},
      {"compound": "COc1cc2nc(N3CCN(C(=O)C4CCCO4)CC3)nc(N)c2cc1OC", "note": "(stereo not shown) [terazosin]", "relieving the symptoms of / treating BPH": "useful for treating BPH"}
    ]},
    {"conditions": "in vivo; cited from earlier work", "values": [
      {"compound": "Clc1cccc(Cl)c1N=C1NCCN1", "note": "[clonidine]", "side effects": "dry mouth and sedation"},
      {"compound": "CC(COc1ccccc1)N(CCCl)Cc1ccccc1", "note": "(stereo not shown) [phenoxybenzamine]", "side effects": "significant side effects such as dizziness and asthenia"},
      {"compound": "COc1cc2nc(N3CCN(C(=O)c4ccco4)CC3)nc(N)c2cc1OC", "note": "[prazosin]", "side effects": "untoward side effects"},
      {"compound": "COc1cc2nc(N3CCN(C(=O)C4CCCO4)CC3)nc(N)c2cc1OC", "note": "(stereo not shown) [terazosin]", "side effects": "untoward side effects"}
    ]}
  ]
}
